Article PMC4085599, “Preliminary Studies on Validation of Calu-3 Cell Line as a Model for Screening Respiratory Mucosa Irritation and Toxicity” (Pharmaceutics, 2014)
Read-outs that look alike come from different tables or passages of the source.

How the values were obtained:
[1] = MTT cell viability assay on Calu-3 cells after exposure to test solutions; type: cell-based, Human; settings: human, Calu-3 cells, 60 min incubation, MTT, relative to negative control, n = 4, read-out: Calu-3 %Viability ± SD; for viability at 60 min, 0.2 % w/v: 0.2% w/v test solution; for viability at 60 min, 1 % w/v: 1.0% w/v test solution
Procedure: (§1) The Calu-3 cells were used at passages 5–10. They were cultured in 96-well plates (Fisher Scientific) in 1:1 DMEM/F-12 supplemented with 10% FBS, 1% Glutamax®, 100 U/mL penicillin, and […] streptomycin using our previously described method. The tissue culture medium was changed every two days.
(§2) Irritant selection, concentration and exposure time were based on mucociliary clearance time and published work in which the compounds were used. […] In order to provide a basis for comparison with other published work using other models three concentrations of the chemicals were selected (0.2%, 0.4% and 1.0%). To initiate the experiments, the cells were washed 3 times with PBS and allowed to equilibrate in 100 µL of buffered DMEM/F-12 (without phenol red) for 30 min. […] Cells were observed under the microscope for detachment before discarding the test solutions. Subsequently, the effect of the test compounds on the cells was determined using MTT assay.
(§3) Cell viability screening was based on cellular mitochondrial dehydrogenase (MDH) activity, measured by MTT reduction and conversion to blue formazan salt that was quantified after extraction from cells. MTT was used for predicting respiratory irritation because several studies have shown correlation between reduction in cell viability, decrease in epithelial electrical resistance and increases in biomarkers such as IL-1α and IL-1β. Cells grown in 96-well plates were used for the studies. After exposure of the cells to the solution of test compounds, the solutions were discarded and 100 μL of MTT (5.0 mg/mL) added to each well and incubated for 3 h at 37 °C. Subsequently, the MTT solution was removed and replaced with 100 μL isopropyl alcohol. The plates were then wrapped in aluminium foil and incubated for 2 h at 37 °C in order to extract formazan from the cells. Extracted formazan salt was quantified spectrophotometrically at 570 nm using Synergy™ HT multimode microplate reader (BioTek Instruments Incorporated). The absorbance of isopropyl alcohol (100 μL) was used as blank. The reduction of cell viability in treated cells was compared to negative control (cells incubated with DMEM/F-12) and expressed as a percentage.
(§4) Data acceptance criteria, calculation steps, interpretation and prediction model was done using the ECVAM Skin irritation Validation Study as contained in Standard Operating Procedure of Validation of the EpiSkin™ Test Method ^15 min–42 h for the prediction of acute skin irritation of chemicals. This was chosen because the model, as well as the cell viability assay method (MTT) has been accepted by intergovernmental agencies as being able to distinguish between irritants and non-irritants. However, we modified drug exposure time to reflect respiratory route of administration (15–60 min). […] Test compounds with mean relative viability values of 50% and below were considered irritant (I); those above 50% were considered non-irritant (NI) according to the ECVAM protocol.

Calu-3 cells = assay: as above; type: cell-based, Human; settings: for Calu-3 model prediction (irritant if viability 50% and below) compared with European Union class: ECVAM protocol; for Calu-3 %Viability ± SD: 60 min incubation, MTT, relative to negative control, n = 4
Procedure: as §1, §2, §3, §4

eye = tested on: eye; set-up: method as in PMID 12140180; settings: ECETOC eye irritation data bank, ref [12], cited from earlier work; for European Union Irritation Class: Non-Irritating / European Union Irritation Class: R41 Risk of Serious Damage to Eye: tick = compound belongs to this class
[2] = set-up: method as in earlier work; settings: ref [19],[20]; cited from earlier work
[3] = 0.2% w/v test solution, 60 min exposure
[4] = 1.0% w/v test solution, 60 min exposure

Compound | viability at 60 min, 0.2 % w/v [1] [%] | viability at 60 min, 1 % w/v [1] [%] | Calu-3 model prediction (irritant if viability 50% and below) compared with European Union class (Calu-3 cells; [3]) | European Union Irritation Class: Non-Irritating (eye) | Log p Octanol–Water [2] | Calu-3 %Viability ± SD (Calu-3 cells; 0.2% w/v test solution) [%] | Calu-3 %Viability ± SD (Calu-3 cells; 1.0% w/v test solution) [%] | Calu-3 cells killed (Calu-3 cells; 0.2% w/v, 60 min exposure) | Calu-3 model prediction (irritant if viability 50% and below) compared with European Union class (Calu-3 cells; [4]) | Calu-3 %Viability ± SD (Calu-3 cells; 1.0% w/v test solution, listed as sodium hydroxide) | European Union Class (eye; as listed in Table 2) | European Union Class (eye; as listed in Table 3) | European Union Irritation Class: R41 Risk of Serious Damage to Eye (eye)
OCC(O)CO [Glycerol] | 85.6 ± 8.7 | 86.5 ± 7 | correctly predicted | √ |  |  |  |  |  |  |  |  | 
COCC(O)CO (centres unmarked) [3-Methoxy-1,2-propanediol] | 92.6 ± 4.1 | 90.7 ± 4.3 | correctly predicted | √ | −1.20 |  |  |  |  |  |  |  | 
PEG 600 |  |  | correctly predicted | √ | −1.21 | 85.9 ± 13.4 | 81.7 ± 10.8 |  |  |  |  |  | 
CCO [Anhydrous ethanol] |  |  | correctly predicted | √ |  | 99.1 ± 3.9 | 90.3 ± 8.0 |  |  |  |  |  | 
[Na+].[OH-] [Sodium hydroxide] |  |  |  |  | 0 | 4.6 ± 0.4 | 14.9 ± 1.2 | about 95% | correctly predicted | less than 17% | R41 | R41 | √
OC1CCCCC1 [Cyclohexanol] |  |  | false negatives |  | 1.23 | 89.9 ± 14.3 | 78.7 ± 11.7 |  | false negatives |  | R41 | R41 | √
PEG 400 |  |  | correctly predicted | √ | −1.21 | 91.5 ± 4.6 | 92.2 ± 15.9 |  |  |  |  |  | 
O=C([O-])C(=O)[O-].[Na+].[Na+] [Sodium oxalate] |  |  | false negative |  |  | 65.4 ± 4.0 | 64.5 ± 11.5 |  | false negatives |  | R41 | R41 | √
c1c[nH]cn1 [Imidazole] |  |  |  |  |  |  |  |  |  |  | R41 | R41 | 
Nc1ccc(F)cc1 [4-Fluoroaniline] | 115 ± 5.9 | 75.6 ± 10.9 | false negatives |  |  |  |  |  | false negatives |  | R41 | R41 | √
Cc1ccccc1 [Toluene] | 85.7 ± 13 | 110 ± 6.6 |  | √ |  |  |  |  |  |  |  |  | 
